Reference: PubChem BioAssay AID2060513 (Molecular Pharmacology Branch, DTP, NCI, 2025)
pIC50: −log10 of the molar value.

Test system: 299254-011-R-J1-PDC complex spheroids viability
Assay: Anticancer human tumor 299254-011-R-J1-PDC patient-derived melanoma cell line growth inhibition [GQUAD]
Conditions: for pIC50: curve of first compound; for viability, T/C: stronger effect = lower value
How it was run: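 Tumor cells were grown as complex spheroids with HUVEC endothelial cells and mesenchymal stem cells as stroma. G-quadruplex stabilizers were combined with targeted agents over half-log dilutions from near the clinical Cmax, or from 10 microM.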

[1] = second compound 0.0316 µM, first compound 0.0316 µM
[2] = second compound 0.0316 µM, first compound 0.1 µM
[3] = second compound 0.0316 µM, first compound 0.316 µM
[4] = second compound 0.0316 µM, first compound 1 µM
[5] = second compound 0.0316 µM, first compound 3.16 µM
[6] = second compound 0.0316 µM, first compound 10 µM
[7] = second compound 0.1 µM, first compound 0.0316 µM
[8] = second compound 0.1 µM, first compound 0.1 µM
[9] = second compound 0.1 µM, first compound 0.316 µM
[10] = second compound 0.1 µM, first compound 1 µM
[11] = second compound 0.1 µM, first compound 3.16 µM
[12] = second compound 0.1 µM, first compound 10 µM
[13] = second compound 0.316 µM, first compound 0.0316 µM
[14] = second compound 0.316 µM, first compound 0.1 µM
[15] = second compound 0.316 µM, first compound 0.316 µM
[16] = second compound 0.316 µM, first compound 1 µM
[17] = second compound 0.316 µM, first compound 3.16 µM
[18] = second compound 0.316 µM, first compound 10 µM
[19] = second compound 1 µM, first compound 0.0316 µM
[20] = second compound 1 µM, first compound 0.1 µM
[21] = second compound 1 µM, first compound 0.316 µM
[22] = second compound 1 µM, first compound 1 µM
[23] = second compound 1 µM, first compound 3.16 µM
[24] = second compound 1 µM, first compound 10 µM
[25] = second compound 3.16 µM, first compound 0.0316 µM
[26] = second compound 3.16 µM, first compound 0.1 µM
[27] = second compound 3.16 µM, first compound 0.316 µM
[28] = second compound 3.16 µM, first compound 1 µM
[29] = second compound 3.16 µM, first compound 3.16 µM
[30] = second compound 3.16 µM, first compound 10 µM
[31] = second compound 10 µM, first compound 0.0316 µM
[32] = second compound 10 µM, first compound 0.1 µM
[33] = second compound 10 µM, first compound 0.316 µM
[34] = second compound 10 µM, first compound 1 µM
[35] = second compound 10 µM, first compound 3.16 µM
[36] = second compound 10 µM, first compound 10 µM
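Note: spheroids exposed to the agents for seven days before readout.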
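Throughout, for viability, T/C: percent viability relative to DMSO vehicle control wells = 100%.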

## CC(=O)O[C@H]1C(=O)[C@@]2(C)[C@H]([C@H](OC(=O)c3ccccc3)[C@]3(O)C[C@H](OC(=O)[C@H](O)[C@@H](NC(=O)c4ccccc4)c4ccccc4)C(C)=C1C3(C)C)[C@]1(OC(C)=O)CO[C@@H]1C[C@@H]2O + Cc1cnc(CNC(=O)c2c(=O)c3ccc(N4CCCN(C)CC4)nc3n3c2sc2ccccc23)cn1
Second compound 0.0316 µM
  pIC50: 6.39
Second compound 0.1 µM
  pIC50: 6.61
Second compound 0.316 µM
  pIC50: 6.56
Second compound 1 µM
  pIC50: 6.77
Second compound 3.16 µM
  pIC50: 6.69
Second compound 10 µM
  pIC50: > 7.50
[1]
  viability, T/C: 90%
[2]
  viability, T/C: 77.5%
[3]
  viability, T/C: 58.8%
[4]
  viability, T/C: 23.7%
[5]
  viability, T/C: 26.8%
[6]
  viability, T/C: 23%
[7]
  viability, T/C: 114%
[8]
  viability, T/C: 89.2%
[9]
  viability, T/C: 38.1%
[10]
  viability, T/C: 29.3%
[11]
  viability, T/C: 29.1%
[12]
  viability, T/C: 23.3%
[13]
  viability, T/C: 94.4%
[14]
  viability, T/C: 75.1%
[15]
  viability, T/C: 44.9%
[16]
  viability, T/C: 32.1%
[17]
  viability, T/C: 24.1%
[18]
  viability, T/C: 22.7%
[19]
  viability, T/C: 67.6%
[20]
  viability, T/C: 62.8%
[21]
  viability, T/C: 34.6%
[22]
  viability, T/C: 30.8%
[23]
  viability, T/C: 24.9%
[24]
  viability, T/C: 27.1%
[25]
  viability, T/C: 57.7%
[26]
  viability, T/C: 58%
[27]
  viability, T/C: 43.6%
[28]
  viability, T/C: 39.8%
[29]
  viability, T/C: 25.6%
[30]
  viability, T/C: 29.2%
[31]
  viability, T/C: 0.42%
[32]
  viability, T/C: 0.39%
[33]
  viability, T/C: 0.41%
[34]
  viability, T/C: 0.35%
[35]
  viability, T/C: 0.4%
[36]
  viability, T/C: 0.34%

## CC1COCCN1c1cc(C2(O)CC3CCC(C2)O3)c2cnn(-c3ccn[nH]3)c2n1 (stereo unspecified) + Cc1cnc(CNC(=O)c2c(=O)c3ccc(N4CCCN(C)CC4)nc3n3c2sc2ccccc23)cn1
Second compound 0.0316 µM
  pIC50: 7.05
Second compound 0.1 µM
  pIC50: 6.98
Second compound 0.316 µM
  pIC50: > 7.50
Second compound 1 µM
  pIC50: > 7.50
Second compound 3.16 µM
  pIC50: > 7.50
Second compound 10 µM
  pIC50: > 7.50
[1]
  viability, T/C: 94.4%
[2]
  viability, T/C: 41.6%
[3]
  viability, T/C: 28.7%
[4]
  viability, T/C: 11.4%
[5]
  viability, T/C: 13%
[6]
  viability, T/C: 3.95%
[7]
  viability, T/C: 58.6%
[8]
  viability, T/C: 51.5%
[9]
  viability, T/C: 18.6%
[10]
  viability, T/C: 14.1%
[11]
  viability, T/C: 9.97%
[12]
  viability, T/C: 4.33%
[13]
  viability, T/C: 31.4%
[14]
  viability, T/C: 32%
[15]
  viability, T/C: 14.3%
[16]
  viability, T/C: 15.9%
[17]
  viability, T/C: 11%
[18]
  viability, T/C: 4.06%
[19]
  viability, T/C: 22.3%
[20]
  viability, T/C: 21%
[21]
  viability, T/C: 17.1%
[22]
  viability, T/C: 12.8%
[23]
  viability, T/C: 14.8%
[24]
  viability, T/C: 6.33%
[25]
  viability, T/C: 18.8%
[26]
  viability, T/C: 22.3%
[27]
  viability, T/C: 17.1%
[28]
  viability, T/C: 10.6%
[29]
  viability, T/C: 13.1%
[30]
  viability, T/C: 7.02%
[31]
  viability, T/C: 0.16%
[32]
  viability, T/C: 0.22%
[33]
  viability, T/C: 0.23%
[34]
  viability, T/C: 0.17%
[35]
  viability, T/C: 0.29%
[36]
  viability, T/C: 0.23%

## Cc1[nH]c2ccccc2c1CCNCc1ccc(/C=C/C(=O)NO)cc1 + Cc1[nH]c2ccc(F)cc2c1-c1nc2c3cccnc3c3ncccc3c2[nH]1
Second compound 0.0316 µM
  pIC50: 6.91
Second compound 0.1 µM
  pIC50: 6.89
Second compound 0.316 µM
  pIC50: 6.70
Second compound 1 µM
  pIC50: 6.73
Second compound 3.16 µM
  pIC50: 6.74
Second compound 10 µM
  pIC50: 6.79
Second compound 0.0316 µM, first compound 0.000999 µM
  viability, T/C: 95.9%
Second compound 0.0316 µM, first compound 0.00316 µM
  viability, T/C: 81.8%
Second compound 0.0316 µM, first compound 0.00999 µM
  viability, T/C: 92.5%
[1]
  viability, T/C: 81.3%
Second compound 0.0316 µM, first compound 0.0999 µM
  viability, T/C: 56.3%
[3]
  viability, T/C: 21.5%
Second compound 0.1 µM, first compound 0.000999 µM
  viability, T/C: 95.3%
Second compound 0.1 µM, first compound 0.00316 µM
  viability, T/C: 119%
Second compound 0.1 µM, first compound 0.00999 µM
  viability, T/C: 81.8%
[7]
  viability, T/C: 71.1%
Second compound 0.1 µM, first compound 0.0999 µM
  viability, T/C: 64.5%
[9]
  viability, T/C: 22%
Second compound 0.316 µM, first compound 0.000999 µM
  viability, T/C: 88.1%
Second compound 0.316 µM, first compound 0.00316 µM
  viability, T/C: 99.4%
Second compound 0.316 µM, first compound 0.00999 µM
  viability, T/C: 95.8%
[13]
  viability, T/C: 77.6%
Second compound 0.316 µM, first compound 0.0999 µM
  viability, T/C: 86.3%
[15]
  viability, T/C: 25.5%
Second compound 1 µM, first compound 0.000999 µM
  viability, T/C: 96.1%
Second compound 1 µM, first compound 0.00316 µM
  viability, T/C: 87.4%
Second compound 1 µM, first compound 0.00999 µM
  viability, T/C: 93.7%
[19]
  viability, T/C: 89%
Second compound 1 µM, first compound 0.0999 µM
  viability, T/C: 81.8%
[21]
  viability, T/C: 23.6%
Second compound 3.16 µM, first compound 0.000999 µM
  viability, T/C: 93.8%
Second compound 3.16 µM, first compound 0.00316 µM
  viability, T/C: 79.2%
Second compound 3.16 µM, first compound 0.00999 µM
  viability, T/C: 86.6%
[25]
  viability, T/C: 85.8%
Second compound 3.16 µM, first compound 0.0999 µM
  viability, T/C: 74.8%
[27]
  viability, T/C: 26.7%
Second compound 10 µM, first compound 0.000999 µM
  viability, T/C: 78.2%
Second compound 10 µM, first compound 0.00316 µM
  viability, T/C: 105%
Second compound 10 µM, first compound 0.00999 µM
  viability, T/C: 94.6%
[31]
  viability, T/C: 84.1%
Second compound 10 µM, first compound 0.0999 µM
  viability, T/C: 74.8%
[33]
  viability, T/C: 17.9%
